Like-named read-outs stand apart in the source and are kept apart here.

In the test the target is T1, NKX2-5 transcriptional activity (Mus musculus, UniProt P42582).
T1 construct: expressed in transfected cells; host or cells: COS-1
The test can be described thus: NKX2-5 luciferase reporter assay (3xNKE reporter, COS-1 cells). The format is cell-based. The settings on record: for activity at 3 µM: COS-1, read-out: NKX.3µM. Background: In a reporter assay the amount or activity of a reporter protein is the signal.

The mark [1] stands for this setting: 3 µM, luciferase reporter activity, % of control.
Setting [2] is: 3 µM, luciferase reporter activity relative to control.

T1 sequence (P42582 whole entry): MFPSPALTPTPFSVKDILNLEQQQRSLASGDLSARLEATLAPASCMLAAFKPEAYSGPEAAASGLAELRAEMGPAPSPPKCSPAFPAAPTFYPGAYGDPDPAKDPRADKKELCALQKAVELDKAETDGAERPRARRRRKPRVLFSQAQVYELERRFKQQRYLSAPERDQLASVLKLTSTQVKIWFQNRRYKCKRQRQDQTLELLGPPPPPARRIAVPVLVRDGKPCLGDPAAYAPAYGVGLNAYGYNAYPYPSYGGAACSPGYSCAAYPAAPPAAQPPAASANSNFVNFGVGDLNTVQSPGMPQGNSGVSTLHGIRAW

Consider `CCN(CC)c1ccc(NC(=O)c2c(-c3ccccc3)noc2C)cc1` [Compound 1, N-[4-(Diethylamino)phenyl]-5-methyl-3-phenylisoxazole-4-carboxamide], for which the activity at 3 µM under setting [1] stood at 76%.
As for `Cc1onc(-c2ccccc2)c1C(=O)N(C1=NC(C)CS1)c1ccc(Cl)cc1` (stereo not drawn) [Compound 2], the activity at 3 µM under setting [1] is 102%.
With `Cc1onc(-c2ccccc2)c1COc1ccc(C(=O)OCCC#N)cc1` [Compound 35a, 2-Cyanoethyl 4-[(5-Methyl-3-phenylisoxazol-4-yl)methoxy]benzoate], the activity at 3 µM under setting [2] was determined as 39.5%.
Regarding `CCN(CC)c1ccc(NC(=O)c2cnsc2)cc1` [Compound 47s], the activity at 3 µM under setting [2] was 41.8%.
Still for that read-out and setting: for `CCC(=O)N(Cc1ccc(N(CC)CC)cc1)c1c(-c2ccccc2)noc1C` [Compound 58] the value was 73.7%; for `COc1ccc(-c2cc(NC(=O)c3ccc(C(C)(C)C)cc3)n[nH]2)cc1` [Compound 72], 74.8%.
On to “N-[4-(Diethylamino)phenyl]-3-methyl-5-(4-methyl-1,2,3-thiadiazol-5-yl)isoxazole-4-carboxamide [Compound 47c]”, for which the NKX.3µM under setting [2] turned out to be 33.64. Moreover, the “NKX2-5 (% of control) Mean ± SD” value (10 μM, COS-1 cells, 24 h) was 21 ± 0.88 % of control. Further, the NKX.10µM (10 µM, luciferase reporter activity relative to control) amounted to 20.92.
